Patent publication US20210236668A1, “COMPOSITIONS FOR RADIOTHERAPY AND USES THEREOF” (The Trustees of Columbia University in the City of New York, priority 2018, published 2021)
“And” between values parts separate entries of the source, which are not always exact repeats. Identical values can stand only once. Counter-ions that a name gives are not always drawn. Like-named read-outs stand apart in the source and are kept apart here.

What was measured:
NCI-2052H cells = experiment: Cytotoxicity assay (MTS, CellTiter 96 AQueous One, 490 nm), 72 hrs; assay type: cell-based; conditions: for Average reading: cells + drug: absorbance 490 nm
Method: Read absorbance (MTS assay) and calculate cells survival rate. Compare survival rate
1,500,000 cells/440,000=3.4 ml of cells/media mix need to take from flask and transfer to 26.6 ml media. In 50 ml Falcon tube, combine 26.6 ml fresh medium and 3.4 ml cells. Gently mix.
1. Centrifuge tubes at 3200 rpm for 3 min. Take out supernatant.
6. Check the plates and start incubation for 72 hrs at 37° C./5% CO2.
5. Incubate plate 1 hr at 37° C., 5% CO2.
Compare survival rate of cells.
1. […] Protocol how to do that see in previous cytotoxicity experiment.
1. Incubate plate for 72 hrs at 37° C., 5% CO2.
6. Incubate plate 1 hr at 37° C., 5% CO2.

NCI-28H cells = conditions: for % survival cells after exposure to drug for 72 hrs (cells + drug only) / Average absorbance readings: cells + drug / % survival from untreated cells: cells + drug / Average reading: cells + drug / Average absorbance reading: cells + drug: NCI-28H
[1] = Talc bound to hot/cold Avidin, 48 hrs wash in PBS containing 10% FBS, absorbance 450 nm; assay type: physicochemical; conditions: 48 hrs in PBS containing 10% FBS
Method: Purpose: To check how strong the conjugate of hot/cold Avidin to Talc is. […] Absorbance will be checked twice—once before washing with PBS containing 10% FBS and after 48 hours, washing will be done.
14. […] Two identical microplates need to be set up, labeling them as: plate #1 and plate #2. Design of the plate:
3. Wash both plates 3× with 300 μL PBS.
5. […] Mix constantly, cover plate with Aluminum foil.
6. Add 100 μL of TMB to samples in plate #1.
9. Read absorbance at 450 nm using the plate reader.
3. Collect 100 μL supernatant from samples except native controls and load on same plate.
4. Wash plate except supernatant samples 3× with 300 μL PBS.
6. Add 100 μL of TMB to all samples in plate #2.

For CO[C@@]12[C@H](COC(N)=O)C3=C(C(=O)C(C)=C(N)C3=O)N1C[C@@H]1N[C@@H]12 [mitomycin, Mitomycin], the “Average reading: cells + drug” value (NCI-2052H cells; mitomycin 0.013 μM) was 1.284, the “Average reading: cells + drug” value (NCI-2052H cells; mitomycin 0.064 μM) was 1.199 and the “Average reading: cells + drug” value (NCI-2052H cells; mitomycin 8 μM) was 0.4142. The “Average reading: cells + drug” value (NCI-2052H cells; mitomycin 40 μM) was 0.2305, the “Average reading: cells + drug” value (NCI-2052H cells; mitomycin 200 μM) was 0.2098 and the “Average reading: cells + drug” value (NCI-2052H cells; mitomycin .0026 μM) was 1.424. For the same compound, the “% survival cells after exposure to drug for 72 hrs (cells + drug only)” value (shortened to “% survival cells after exposure to drug”) (NCI-28H cells; mitomycin 0.0026 μM, 72 hrs) was 106.12%, the “Average absorbance readings: cells + drug” value (shortened to “Average absorbance readings”) (NCI-28H cells; mitomycin 0.0026 μM) was 2.032 and the “% survival cells after exposure to drug” value (NCI-28H cells; mitomycin 0.013 μM, 72 hrs) was 102.65%. The “Average absorbance readings” value (NCI-28H cells; mitomycin 0.013 μM) was 1.965, the “% survival cells after exposure to drug” value (NCI-28H cells; mitomycin 0.064 μM, 72 hrs) was 98.03% and the “Average absorbance readings” value (NCI-28H cells; mitomycin 0.064 μM) was 1.8766. For the same compound, the “% survival cells after exposure to drug” value (NCI-28H cells; mitomycin 8 μM, 72 hrs) was 18.03%, the “Average absorbance readings” value (NCI-28H cells; mitomycin 8 μM) was 0.3451 and the “% survival cells after exposure to drug” value (NCI-28H cells; mitomycin 40 μM, 72 hrs) was 27.16%. The “Average absorbance readings” value (NCI-28H cells; mitomycin 40 μM) was 0.52, the “% survival cells after exposure to drug” value (NCI-28H cells; mitomycin 200 μM, 72 hrs) was 12.87% and the “Average absorbance readings” value (NCI-28H cells; mitomycin 200 μM) was 0.2464.
For “Avidin: Avidin from egg white (Sigma A9275), 66 kDa biotin-binding protein; unlabeled = cold Avidin”, the “binding of Avidin to talc at 48 hours” value [1] was “unchanged”.
For CC(=O)O[C@H]1C(=O)[C@@]2(C)[C@H]([C@H](OC(=O)c3ccccc3)[C@]3(O)C[C@H](OC(=O)[C@H](O)[C@@H](NC(=O)c4ccccc4)c4ccccc4)C(C)=C1C3(C)C)[C@]1(OC(C)=O)CO[C@@H]1C[C@@H]2O [Paclitaxel], the “Average reading: cells + drug” value (NCI-2052H cells; paclitaxel 0.256 nM) was 1.4273, the “Average reading: cells + drug” value (NCI-2052H cells; paclitaxel 6.4 nM) was 1.54 and the “Average reading: cells + drug” value (NCI-2052H cells; paclitaxel 32 nM) was 0.5818. The “Average reading: cells + drug” value (NCI-2052H cells; paclitaxel 160 nM) was 0.4361, the “Average reading: cells + drug” value (NCI-2052H cells; paclitaxel 800 nM) was 0.4326 and the “Average reading: cells + drug” value (NCI-2052H cells; paclitaxel 4000 nM) was 0.553. For the same compound, the “Average reading: cells + drug” value (NCI-2052H cells; paclitaxel 20,000 nM) was 0.1647 and the “Average readings: cells + drug” value (NCI-28H cells; Paclitaxel 80 nM, absorbance 490 nm) was 1.10.
With N.N.O=C([O-])C1(C(=O)[O-])CCC1.[Pt+2] [Carboplatin] the “% survival from untreated cells: cells + drug” value (NCI-28H cells; carboplatin 0.006 μM) was 90.84% and 94.28%, the “Average reading: cells + drug” value (NCI-28H cells; carboplatin 0.006 μM, absorbance 490 nm) was 1.504 and the “% survival from untreated cells: cells + drug” value (NCI-28H cells; carboplatin 0.8 μM) was 85.98% and 87.53%. The “Average reading: cells + drug” value (NCI-28H cells; carboplatin 0.8 μM, absorbance 490 nm) was 1.4238, the “% survival from untreated cells: cells + drug” value (NCI-28H cells; carboplatin 4 μM) was 96.93% and 93.62% and the “Average reading: cells + drug” value (NCI-28H cells; carboplatin 4 μM, absorbance 490 nm) was 1.605. The “% survival from untreated cells: cells + drug” value (NCI-28H cells; carboplatin 20 μM) was 104.81% and 99.20%, the “Average reading: cells + drug” value (NCI-28H cells; carboplatin 20 μM, absorbance 490 nm) was 1.7355 and the “% survival from untreated cells: cells + drug” value (NCI-28H cells; carboplatin 100 μM) was 83.82% and 79.53%. For the same compound, the “Average reading: cells + drug” value (NCI-28H cells; carboplatin 100 μM, absorbance 490 nm) was 1.388, the “% survival from untreated cells: cells + drug” value (NCI-28H cells; carboplatin 500 μM) was 37.38% and 35.14% and the “Average reading: cells + drug” value (NCI-28H cells; carboplatin 500 μM, absorbance 490 nm) was 0.6189.
In the case of N.N.[Cl][Pt][Cl] [Cisplatin], the “cytotoxicity to NCI-28H cells, comparison” value (NCI-28H cells) is reported as “no noticeable difference in toxicity”, the “Average reading: cells + cisplatin” value (NCI-28H cells; 72 hrs, Cisplatin 20 μM) is reported as 0.48 and the “Average reading: cells + cisplatin” value (NCI-28H cells; 72 hrs, Cisplatin 100 μM) is reported as 0.59.
For Nc1ccn([C@@H]2O[C@H](CO)[C@@H](O)C2(F)F)c(=O)n1 [gemcitabine, Gemcitabine], the “cytotoxicity to NCI-28H cells, comparison” value (NCI-28H cells) was “clear cytotoxic effect”, the “% survival from untreated cells: cells + drug” value (NCI-28H cells; gemcitabine 0.0026 μM) was 114.61% and the “Average absorbance reading: cells + drug” value (NCI-28H cells; gemcitabine 0.0026 μM) was 2.034. For the same compound, the “% survival from untreated cells: cells + drug” value (NCI-28H cells; gemcitabine 0.013 μM) was 107.85%, the “Average absorbance reading: cells + drug” value (NCI-28H cells; gemcitabine 0.013 μM) was 1.914 and the “% survival from untreated cells: cells + drug” value (NCI-28H cells; gemcitabine 0.064 μM) was 80.60%. The “Average absorbance reading: cells + drug” value (NCI-28H cells; gemcitabine 0.064 μM) was 1.43, the “% survival from untreated cells: cells + drug” value (NCI-28H cells; gemcitabine 8 μM) was 56.58% and the “Average absorbance reading: cells + drug” value (NCI-28H cells; gemcitabine 8 μM) was 1.004. The “% survival from untreated cells: cells + drug” value (NCI-28H cells; gemcitabine 40 μM) was 60.09%, the “Average absorbance reading: cells + drug” value (NCI-28H cells; gemcitabine 40 μM) was 1.0663 and the “% survival from untreated cells: cells + drug” value (NCI-28H cells; gemcitabine 200 μM) was 52.70%. The “Average absorbance reading: cells + drug” value (NCI-28H cells; gemcitabine 200 μM) was 0.9352.
In the case of COc1cccc2c1C(=O)c1c(O)c3c(c(O)c1C2=O)C[C@@](O)(C(=O)CO)C[C@@H]3O[C@H]1C[C@H](N)[C@H](O)[C@H](C)O1 [DOX, Doxorubicin Hydrochloride], the “% survival from untreated cells” value (NCI-2052H cells; doxorubicin 400 nM) is reported as 57.76%, the “% survival from untreated cells” value (NCI-2052H cells; doxorubicin 2000 nM) is reported as 25.59% and the “% survival from untreated cells” value (NCI-2052H cells; doxorubicin 10,000 nM) is reported as 18.91%. For the same compound, the “AVERAGE: cells + DOX (absorbance)” value (NCI-28H cells; 72 hrs, DOX 0.000064 μM) was 1.18, the “AVERAGE: cells + DOX (absorbance)” value (NCI-28H cells; 72 hrs, DOX 0.2 μM) was 0.89 and the “AVERAGE: cells + DOX (absorbance)” value (NCI-28H cells; 72 hrs, DOX 1 μM) was 0.67. The “AVERAGE: cells + DOX (absorbance)” value (NCI-28H cells; 72 hrs, DOX 5 μM) was 0.63, the “% survival from untreated by DOX cells” value (NCI-28H cells; 72 hrs, Dox 200 nM) was 65.0% and the “% survival NCI-28H cells after different treatment (compare to untreated cells)” value (NCI-28H cells; cells + 125 nM DOX) was 70%.
